The record followed here is US20120157401A1, “METHODS FOR TREATING NEUROFIBROMATOSIS” (PTC Therapeutics, Inc., priority 2009, published 2012).

Each structure is given as a SMILES string. pEC50: −log10 of the molar value.

In the first test the test system is hypoxia-inducible endogenous VEGF expression. Description: Hypoxia-inducible endogenous VEGF expression ELISA in HeLa cells, dose-response EC50 (Table 3). The settings on record: HeLa cells, hypoxic conditions (1% O2), 24-48 hours, VEGF in conditioned media; read-out: ELISA EC50. Format: cell-based, human. An outline of the steps: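 HeLa cells kept 24-48 h under hypoxia (1% O2, 5% CO2, nitrogen balance) with or without compound, e.g. seven concentrations; secreted VEGF in conditioned medium quantified by ELISA against a standard curve. Parallel Cell Titer Glo viability under identical conditions excludes cytotoxicity.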
`O=C(Oc1ccc(F)cc1)N1CCc2c([nH]c3ccc(Cl)cc23)C1c1ccc(OCCCn2ccnc2)cc1` (stereo not drawn) [Compound 994]: the pEC50 is above 8.10.
The same measure, in the same setting: the same measure for `O=C(Oc1ccc(Cl)cc1)N1CCc2c([nH]c3ccc(Cl)cc23)C1c1ccc(OCCCCn2ccnc2)cc1` (stereo not drawn) [Compound 1001]: 7.40 to 8.10; for `O=C(Oc1ccc(F)cc1)N1CCc2c([nH]c3ccc(Cl)cc23)C1c1ccc(OCC(O)Cn2ccnn2)cc1` (stereo not drawn) [Compound 1066]: above 8.10.

Staying with this test, now noted: Homo sapiens, HeLa, read-out: ELISA EC50 μM.
As for `CC(=O)N1CCN(CCCOc2ccc(C3c4[nH]c5ccc(Cl)cc5c4CCN3C(=O)Oc3ccc(F)cc3)cc2)CC1` (stereo not drawn) [Compound 988], the EC50 is below 0.008 µM.
On the same count and under the same terms, the same measure for `O=C(Oc1ccc(F)cc1)N1CCc2c([nH]c3ccc(Cl)cc23)C1c1ccc(OCCCN2CCOCC2)cc1` (stereo not drawn) [Compound 989]: below 0.008 µM; for `COCCN(CCCOc1ccc(C2c3[nH]c4ccc(Cl)cc4c3CCN2C(=O)Oc2ccc(F)cc2)cc1)CCOC` (stereo not drawn) [Compound 990]: below 0.008 µM; for `O=C(Oc1ccc(F)cc1)N1CCc2c([nH]c3ccc(Cl)cc23)C1c1ccc(OCCCN2CCSCC2)cc1` (stereo not drawn) [Compound 991]: 0.04 to 0.2 µM.
On the same count and under the same terms, the same measure for `COCCN(C)CCCOc1ccc(C2c3[nH]c4ccc(Cl)cc4c3CCN2C(=O)Oc2ccc(F)cc2)cc1` (stereo not drawn) [Compound 992]: 0.04 to 0.2 µM; for `CN1CCN(CCCOc2ccc(C3c4[nH]c5ccc(Cl)cc5c4CCN3C(=O)Oc3ccc(F)cc3)cc2)CC1` (stereo not drawn) [Compound 993]: below 0.008 µM; for `COc1ccc(OC(=O)N2CCc3c([nH]c4ccc(Cl)cc34)C2c2ccc(OCCC3CCCN3C)cc2)cc1` (stereo not drawn) [Compound 1005]: 0.2 to 1 µM.
In the case of `CN1CCCC1CCOc1ccc(C2c3[nH]c4ccc(Cl)cc4c3CCN2C(=O)Oc2ccc(F)cc2)cc1` (stereo not drawn) [Compound 1008], the EC50 was in the range of 0.04 to 0.2 µM.
On the same count and under the same terms, as for `COCCN1CCN(C(=O)COc2ccc(C3c4[nH]c5ccc(Cl)cc5c4CCN3C(=O)Oc3ccc(F)cc3)cc2)CC1` (stereo not drawn) [Compound 1021], the figure is 0.04 to 0.2 µM; as for `O=C(COc1ccc(C2c3[nH]c4ccc(Cl)cc4c3CCN2C(=O)Oc2ccc(F)cc2)cc1)NCCN1CCOCC1` (stereo not drawn) [Compound 1022], 0.04 to 0.2 µM.
In the case of `CCN1CCN(C(=O)COc2ccc(C3c4[nH]c5ccc(Cl)cc5c4CCN3C(=O)Oc3ccc(F)cc3)cc2)CC1` (stereo not drawn) [Compound 1024], the EC50 was 0.04 to 0.2 µM.
The same measure, in the same setting: as for `COCCN1CCN(C(=O)COc2ccc(C3c4[nH]c5ccc(Cl)cc5c4CCN3C(=O)Oc3ccc(OC)cc3)cc2)CC1` (stereo not drawn) [Compound 1025], the figure is 0.04 to 0.2 µM.
Same read-out and setting: as for `COc1ccc(OC(=O)N2CCc3c([nH]c4ccc(Cl)cc34)C2c2ccc(OCC(=O)NCCN3CCOCC3)cc2)cc1` (stereo not drawn) [Compound 1026], the figure is 0.008 to 0.04 µM; as for `CCN1CCN(C(=O)COc2ccc(C3c4[nH]c5ccc(Cl)cc5c4CCN3C(=O)Oc3ccc(OC)cc3)cc2)CC1` (stereo not drawn) [Compound 1028], 0.04 to 0.2 µM.
Turning to `COc1ccc(OC(=O)N2CCc3c([nH]c4ccc(Cl)cc34)C2c2ccc(OCC(=O)N3CCN(CCCN(C)C)CC3)cc2)cc1` (stereo not drawn) [Compound 1029], the EC50 was above 1 µM.
Same read-out and setting: the same measure for `COc1ccc(OC(=O)N2CCc3c([nH]c4ccc(Cl)cc34)C2c2ccc(OCCCN3CCOCC3)cc2)cc1` (stereo not drawn) [Compound 1030]: 0.008 to 0.04 µM.
Still for that read-out and setting: the same measure for `O=C(COc1ccc(C2c3[nH]c4ccc(Cl)cc4c3CCN2C(=O)Oc2ccc(F)cc2)cc1)N1CCN(CCO)CC1` (stereo not drawn) [Compound 1064]: 0.008 to 0.04 µM; for `O=C(Oc1ccc(Cl)cc1)N1CCc2c([nH]c3ccc(Cl)cc23)[C@@H]1c1ccc(OC[C@H](O)CN2CCOCC2)cc1` [Compound 1070]: below 0.008 µM.
The same measure, in the same setting: the same measure for `O=C(Oc1ccc(Cl)cc1)N1CCc2c([nH]c3ccc(Cl)cc23)[C@@H]1c1ccc(OC[C@@H](O)CN2CCOCC2)cc1` [Compound 1071]: below 0.008 µM.
Regarding `O=C(Oc1ccccc1)N1CCc2c([nH]c3ccc(Cl)cc23)C1c1ccc(OCCCN2CCOCC2)cc1` (stereo not drawn) [Compound 1075], the EC50 fell in the range of 0.008 to 0.04 µM.
The same measure, in the same setting: the same measure for `CN1CCN(CCCOc2ccc(C3c4[nH]c5ccc(Cl)cc5c4CCN3C(=O)Oc3ccccc3)cc2)CC1` (stereo not drawn) [Compound 1076]: 0.04 to 0.2 µM; for `COc1cc(C2c3[nH]c4ccc(Cl)cc4c3CCN2C(=O)Oc2ccc(Cl)cc2)ccc1OCCN1CCOCC1` (stereo not drawn) [Compound 1092]: 0.008 to 0.04 µM; for `COc1cc(C2c3[nH]c4ccc(Cl)cc4c3CCN2C(=O)Oc2ccc(Cl)cc2)ccc1OCCCN1CCOCC1` (stereo not drawn) [Compound 1093]: 0.008 to 0.04 µM.
For `COc1cc(C2c3[nH]c4ccc(Cl)cc4c3CCN2C(=O)Oc2ccc(Cl)cc2)ccc1OCCCCN1CCOCC1` (stereo not drawn) [Compound 1094], the EC50 was 0.008 to 0.04 µM.
Same read-out and setting: as for `COc1ccc(C2c3[nH]c4ccc(Cl)cc4c3CCN2C(=O)Oc2ccc(Cl)cc2)cc1OCCN1CCOCC1` (stereo not drawn) [Compound 1095], the figure is 0.2 to 1 µM; as for `COc1ccc(C2c3[nH]c4ccc(Cl)cc4c3CCN2C(=O)Oc2ccc(Cl)cc2)cc1OCCCN1CCOCC1` (stereo not drawn) [Compound 1096], 0.2 to 1 µM; as for `COc1ccc(C2c3[nH]c4ccc(Cl)cc4c3CCN2C(=O)Oc2ccc(Cl)cc2)cc1OCCCCN1CCOCC1` (stereo not drawn) [Compound 1097], 0.04 to 0.2 µM.
Same read-out and setting: as for `O=C(Oc1ccc(Cl)cc1)N1CCc2c([nH]c3ccc(Cl)cc23)C1c1ccc(OCCCN2CCC(CO)C2)cc1` (stereo not drawn) [Compound 1098], the figure is 0.008 to 0.04 µM.
Still for that read-out and setting: as for `CN1CCC(COc2ccc(C3c4[nH]c5ccc(Cl)cc5c4CCN3C(=O)Oc3ccc(Cl)cc3)cc2)CC1` (stereo not drawn) [Compound 1099], the figure is 0.008 to 0.04 µM.
As for `COc1ccc(OC(=O)N2CCc3c([nH]c4ccc(Cl)cc34)C2c2ccc(OCCCN3CCN(C)CC3)cc2)cc1` (stereo not drawn) [Compound 1108], the EC50 was in the range of 0.008 to 0.04 µM.

Staying with this test, now noted: Homo sapiens; HeLa cells, hypoxic conditions (1% O2), 24-48 hours, VEGF in conditioned media; read-out: ELISA EC50.
`O=C(Oc1ccc(Cl)cc1)N1CCc2c([nH]c3ccc(Cl)cc23)C1c1ccc(N2CCCC2)cc1` (stereo not drawn) [Compound 984]: the pEC50 was 6.00 to 6.70.
For the compound `O=C(Oc1ccc(F)cc1)N1CCc2c([nH]c3ccc(Cl)cc23)C1c1ccc(OCCCn2ccnn2)cc1` (stereo not drawn) [Compound 995], the pEC50 is above 8.10.
Take `O=C(Oc1ccc(Cl)cc1)N1CCc2c([nH]c3ccc(Cl)cc23)C1c1ccc(OCC(O)Cn2cncn2)cc1` (stereo not drawn) [Compound 996]: the pEC50 was above 8.10.
Same read-out and setting: as for `C=CCOc1ccc(C2c3[nH]c4ccc(Cl)cc4c3CCN2C(=O)Oc2ccc(Cl)cc2)cc1` (stereo not drawn) [Compound 999], the figure is above 8.10; as for `O=C(Oc1ccc(Cl)cc1)N1CCc2c([nH]c3ccc(Cl)cc23)C1c1ccc(OCCCn2nccn2)cc1` (stereo not drawn) [Compound 1016], below 6.00; as for `O=C(Oc1ccc(F)cc1)N1CCc2c([nH]c3ccc(Cl)cc23)C1c1ccc(OCCCn2nccn2)cc1` (stereo not drawn) [Compound 1017], above 8.10.
Take `COc1ccc(OC(=O)N2CCc3c([nH]c4ccc(Cl)cc34)C2c2ccc(OCC(=O)N3CCOCC3)cc2)cc1` (stereo not drawn) [Compound 1027]: the pEC50 was 6.70 to 7.40.
Regarding `COc1ccc(OC(=O)N2CCc3c([nH]c4ccc(Cl)cc34)C2c2ccc(OCCCn3ccnn3)cc2)cc1` (stereo not drawn) [Compound 1031], the pEC50 was above 8.10.
Take `O=C(Oc1ccccc1)N1CCc2c([nH]c3ccc(Cl)cc23)C1c1ccc(OCC2OCCO2)cc1` (stereo not drawn) [Compound 1050]: the pEC50 was above 8.10.
Regarding `O=C(Oc1ccc(F)cc1)N1CCc2c([nH]c3ccc(Cl)cc23)C1c1ccc(OCC2OCCO2)cc1` (stereo not drawn) [Compound 1051], the pEC50 is above 8.10.
On the same count and under the same terms, as for `O=C(Oc1ccccc1Cl)N1CCc2c([nH]c3ccc(Cl)cc23)C1c1ccc(OCC2OCCO2)cc1` (stereo not drawn) [Compound 1052], the figure is 7.40 to 8.10.
The same measure, in the same setting: the same measure for `O=C(Oc1ccc(Cl)cc1)N1CCc2c([nH]c3ccc(Cl)cc23)C1c1ccc(OCC2OCCO2)cc1` (stereo not drawn) [Compound 1053]: above 8.10; for `O=C(Oc1ccc(Br)cc1)N1CCc2c([nH]c3ccc(Cl)cc23)C1c1ccc(OCC2OCCO2)cc1` (stereo not drawn) [Compound 1054]: above 8.10.
Same read-out and setting: the same measure for `COc1ccc(OC(=O)N2CCc3c([nH]c4ccc(Cl)cc34)C2c2ccc(OCC3OCCO3)cc2)cc1` (stereo not drawn) [Compound 1055]: 7.40 to 8.10.
For `COc1ccc(OC(=O)N2CCc3c([nH]c4ccc(Cl)cc34)C2c2ccc(OCCCO)cc2)cc1` (stereo not drawn) [Compound 1058], the pEC50 is above 8.10.
Take `O=C(Oc1ccccc1)N1CCc2c([nH]c3ccc(Cl)cc23)C1c1ccc(OCCCO)cc1` (stereo not drawn) [Compound 1062]: the pEC50 is above 8.10.
On the same count and under the same terms, as for `O=C(Oc1ccc(F)cc1)N1CCc2c([nH]c3ccc(Cl)cc23)C1c1ccc(OCC(O)Cn2nccn2)cc1` (stereo not drawn) [Compound 1067], the figure is 7.40 to 8.10.
The same measure, in the same setting: the same measure for `O=C(Oc1ccc(Cl)cc1)N1CCc2c([nH]c3ccc(Cl)cc23)[C@@H]1c1ccc(OCCCn2ccnn2)cc1` [Compound 1068]: above 8.10.
As for `O=C(Oc1ccc(Cl)cc1)N1CCc2c([nH]c3ccc(Cl)cc23)[C@H]1c1ccc(OCCCn2ccnn2)cc1` [Compound 1069], the pEC50 was above 8.10.
The same measure, in the same setting: the same measure for `O=C(Oc1ccccc1)N1CCc2c([nH]c3ccc(Cl)cc23)C1c1ccc(OCCCn2ccnn2)cc1` (stereo not drawn) [Compound 1077]: 7.40 to 8.10; for `O=C(Oc1ccccc1)N1CCc2c([nH]c3ccc(Cl)cc23)C1c1ccc(OCCCn2nccn2)cc1` (stereo not drawn) [Compound 1078]: 7.40 to 8.10.
On the same count and under the same terms, the same measure for `COc1cc(C2c3[nH]c4ccc(Cl)cc4c3CCN2C(=O)Oc2ccc(Cl)cc2)ccc1OCCn1cncn1` (stereo not drawn) [Compound 1086]: 7.40 to 8.10; for `COc1cc(C2c3[nH]c4ccc(Cl)cc4c3CCN2C(=O)Oc2ccc(Cl)cc2)ccc1OCCCn1cncn1` (stereo not drawn) [Compound 1087]: 7.40 to 8.10; for `COc1cc(C2c3[nH]c4ccc(Cl)cc4c3CCN2C(=O)Oc2ccc(Cl)cc2)ccc1OCCCCn1cncn1` (stereo not drawn) [Compound 1088]: 7.40 to 8.10.
On to `COc1ccc(C2c3[nH]c4ccc(Cl)cc4c3CCN2C(=O)Oc2ccc(Cl)cc2)cc1OCCn1cncn1` (stereo not drawn) [Compound 1089], for which the pEC50 was 6.00 to 6.70.
Take `COc1ccc(C2c3[nH]c4ccc(Cl)cc4c3CCN2C(=O)Oc2ccc(Cl)cc2)cc1OCCCn1cncn1` (stereo not drawn) [Compound 1090]: the pEC50 was 6.00 to 6.70.
On the same count and under the same terms, as for `COc1ccc(C2c3[nH]c4ccc(Cl)cc4c3CCN2C(=O)Oc2ccc(Cl)cc2)cc1OCCCCn1cncn1` (stereo not drawn) [Compound 1091], the figure is 6.00 to 6.70.
